Results taken from the supplement of paper PMC10627819.

Legend:
Assay in all cases: fitness (endpoint OD595 vs no drug) (fraction); higher = more growth
B. subtilis 168 = system: B. subtilis 168
Outline: (§1)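 In 384-well plates at 37 °C, cultures began at OD595 0.01 in 30 µl, with 55 µl used for S. pneumoniae. OD595 readings every 30 min for 14 h were corrected by the first reading. Fitness divides the stationary-phase transition optical density by the robust mean of no-drug control wells. The result is capped at 1.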

S. pneumoniae D39V = system: S. pneumoniae D39V
Outline: as §1

S. aureus Newman = system: S. aureus Newman
Outline: as §1

S. aureus DSM 20231 = system: S. aureus DSM 20231
Outline: as §1
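Note: OD595 on entry to stationary phase over no-drug wells; at most 1.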

CCCCCCCCCC(=O)N[C@@H](Cc1c[nH]c2ccccc12)C(=O)N[C@H](CC(N)=O)C(=O)N[C@@H](CC(=O)O)C(=O)N[C@@H]1C(=O)NCC(=O)N[C@@H](CCCN)C(=O)N[C@@H](CC(=O)O)C(=O)N[C@H](C)C(=O)N[C@@H](CC(=O)O)C(=O)NCC(=O)N[C@H](CO)C(=O)N[C@@H]([C@H](C)CC(=O)O)C(=O)N[C@@H](CC(=O)c2ccccc2N)C(=O)O[C@@H]1C [Daptomycin] + CC1=C(C(=O)O)N2C(=O)[C@@H](NC(=O)[C@H](N)c3ccccc3)[C@H]2SC1 [Cephalexin]
fitness
Conditions | first compound 0.125 µg/mL | first compound 0.25 µg/mL | first compound 0.5 µg/mL | first compound 1 µg/mL | first compound 2 µg/mL | first compound 4 µg/mL
B. subtilis 168, partner 0.125 µg/mL | 0.897 | 0.879 | 0.872 | – | – | –
B. subtilis 168, partner 0.25 µg/mL | 0.888 | 0.892 | 0.879 | – | – | –
B. subtilis 168, partner 0.5 µg/mL | 0.879 | 0.957 | 0.835 | – | – | –
S. aureus Newman, partner 0.25 µg/mL | 0.956 | 0.962 | 0.984 | – | – | –
S. aureus Newman, partner 0.5 µg/mL | 0.992 | ≥ 1 | 0.996 | – | – | –
S. aureus Newman, partner 1 µg/mL | 0.991 | ≥ 1 | ≥ 1 | – | – | –
S. pneumoniae D39V, partner 1 µg/mL | – | – | – | 0.452 | 0.479 | 0.449
S. pneumoniae D39V, partner 2 µg/mL | – | – | – | 0.065 | 0.0675 | 0.0521
S. pneumoniae D39V, partner 4 µg/mL | – | – | – | 0.0361 | 0.0644 | 0.0719

fitness, one replicate
Conditions | partner 0.125 µg/mL | partner 0.25 µg/mL | partner 0.5 µg/mL | partner 1 µg/mL
B. subtilis 168, first compound 0.25 µg/mL | – | – | – | 0.956
B. subtilis 168, first compound 0.5 µg/mL | – | – | – | 0.92
B. subtilis 168, first compound 1 µg/mL | – | 0.763 | 0.741 | 0.766
S. pneumoniae D39V, first compound 1 µg/mL | 0.903 | 0.898 | 0.896 | –
S. pneumoniae D39V, first compound 2 µg/mL | 0.922 | 0.857 | 0.891 | –
S. pneumoniae D39V, first compound 4 µg/mL | 0.977 | 0.878 | 0.887 | –

CO/N=C(\C(=O)N[C@@H]1C(=O)N2C(C(=O)[O-])=C(C[N+]3(C)CCCC3)CS[C@H]12)c1csc(N)n1 [Cefepime] + CC1(C)S[C@@H]2[C@H](NC(=O)Cc3ccccc3)C(=O)N2[C@H]1C(=O)O [Penicillin G]
fitness, S. aureus Newman
Conditions | first compound 0.125 µg/mL | first compound 0.25 µg/mL | first compound 0.5 µg/mL
partner 0.0195 µg/mL | 0.868 | 0.801 | 0.712
partner 0.039 µg/mL | 0.895 | 0.811 | 0.695
partner 0.078 µg/mL | 0.871 | 0.773 | 0.704

CN(C)C(=O)C(CCN1CCC(O)(c2ccc(Cl)cc2)CC1)(c1ccccc1)c1ccccc1 [Loperamide] + CO[C@@]12[C@H](COC(N)=O)C3=C(C(=O)C(C)=C(N)C3=O)N1C[C@@H]1N[C@@H]12 [Mitomycin C]
S. pneumoniae D39V
Conditions | fitness
first compound 17.14 µg/mL, partner 0.002 µg/mL | 0.871
first compound 17.14 µg/mL, partner 0.004 µg/mL | 0.796
first compound 17.14 µg/mL, partner 0.008 µg/mL | 0.662
first compound 20 µg/mL, partner 0.001075 µg/mL | ≥ 1
first compound 20 µg/mL, partner 0.00215 µg/mL | ≥ 1
first compound 20 µg/mL, partner 0.0043 µg/mL | 0.926
first compound 34.28 µg/mL, partner 0.002 µg/mL | 0.843
first compound 34.28 µg/mL, partner 0.004 µg/mL | 0.8
first compound 34.28 µg/mL, partner 0.008 µg/mL | 0.616
first compound 40 µg/mL, partner 0.001075 µg/mL | ≥ 1
first compound 40 µg/mL, partner 0.00215 µg/mL | ≥ 1
first compound 40 µg/mL, partner 0.0043 µg/mL | 0.953
first compound 80 µg/mL, partner 0.001075 µg/mL | 0.804
first compound 80 µg/mL, partner 0.00215 µg/mL | 0.801

S. pneumoniae D39V, first compound 68.57 µg/mL, one replicate
Conditions | fitness
partner 0.002 µg/mL | 0.814
partner 0.004 µg/mL | 0.712
partner 0.008 µg/mL | 0.672

CC1(C)S[C@@H]2[C@H](NC(=O)[C@H](N)c3ccc(O)cc3)C(=O)N2[C@H]1C(=O)O [Amoxicillin] + CO[C@@]12[C@H](COC(N)=O)C3=C(C(=O)C(C)=C(N)C3=O)N1C[C@@H]1N[C@@H]12 [Mitomycin C]
Conditions | fitness
S. aureus DSM 20231, first compound 0.0625 µg/mL, partner 0.0156 µg/mL | 0.522
S. aureus DSM 20231, first compound 0.0625 µg/mL, partner 0.0312 µg/mL | 0.467
S. aureus DSM 20231, first compound 0.0625 µg/mL, partner 0.0625 µg/mL | 0.31
S. aureus DSM 20231, first compound 0.125 µg/mL, partner 0.0156 µg/mL | 0.359
S. aureus DSM 20231, first compound 0.125 µg/mL, partner 0.0312 µg/mL | 0.226
S. aureus DSM 20231, first compound 0.125 µg/mL, partner 0.0625 µg/mL | 0.0925
S. aureus DSM 20231, first compound 0.25 µg/mL, partner 0.0156 µg/mL | 0.0215
S. aureus DSM 20231, first compound 0.25 µg/mL, partner 0.0312 µg/mL | 0.0317
S. aureus DSM 20231, first compound 0.25 µg/mL, partner 0.0625 µg/mL | 0.0251
S. aureus DSM 20231, first compound 0.5 µg/mL, partner 0.0156 µg/mL | 0.0035
S. aureus DSM 20231, first compound 0.5 µg/mL, partner 0.0312 µg/mL | 0.0009
S. aureus DSM 20231, first compound 0.5 µg/mL, partner 0.0625 µg/mL | 0.0008
S. aureus Newman, first compound 0.0625 µg/mL, partner 0.0156 µg/mL | 0.67
S. aureus Newman, first compound 0.0625 µg/mL, partner 0.0312 µg/mL | 0.646
S. aureus Newman, first compound 0.0625 µg/mL, partner 0.0625 µg/mL | 0.502
S. aureus Newman, first compound 0.125 µg/mL, partner 0.0156 µg/mL | 0.714
S. aureus Newman, first compound 0.125 µg/mL, partner 0.0312 µg/mL | 0.649
S. aureus Newman, first compound 0.125 µg/mL, partner 0.0625 µg/mL | 0.465
S. aureus Newman, first compound 0.25 µg/mL, partner 0.0312 µg/mL | 0.627
S. pneumoniae D39V, first compound 0.0008 µg/mL, partner 0.001075 µg/mL | ≥ 1
S. pneumoniae D39V, first compound 0.0008 µg/mL, partner 0.00215 µg/mL | 0.895
S. pneumoniae D39V, first compound 0.0008 µg/mL, partner 0.0043 µg/mL | 0.799
S. pneumoniae D39V, first compound 0.0015 µg/mL, partner 0.001075 µg/mL | 0.994
S. pneumoniae D39V, first compound 0.0015 µg/mL, partner 0.002 µg/mL | 0.778
S. pneumoniae D39V, first compound 0.0015 µg/mL, partner 0.00215 µg/mL | 0.876
S. pneumoniae D39V, first compound 0.0015 µg/mL, partner 0.004 µg/mL | 0.836
S. pneumoniae D39V, first compound 0.0015 µg/mL, partner 0.0043 µg/mL | 0.816
S. pneumoniae D39V, first compound 0.0015 µg/mL, partner 0.008 µg/mL | 0.674
S. pneumoniae D39V, first compound 0.003 µg/mL, partner 0.001075 µg/mL | 0.938
S. pneumoniae D39V, first compound 0.003 µg/mL, partner 0.002 µg/mL | 0.702
S. pneumoniae D39V, first compound 0.003 µg/mL, partner 0.00215 µg/mL | 0.832
S. pneumoniae D39V, first compound 0.003 µg/mL, partner 0.004 µg/mL | 0.728
S. pneumoniae D39V, first compound 0.003 µg/mL, partner 0.0043 µg/mL | 0.761
S. pneumoniae D39V, first compound 0.003 µg/mL, partner 0.008 µg/mL | 0.617

fitness, S. pneumoniae D39V, one replicate
Conditions | partner 0.002 µg/mL | partner 0.004 µg/mL | partner 0.008 µg/mL
first compound 0.0008 µg/mL | 0.785 | 0.79 | 0.739
first compound 0.006 µg/mL | 0.269 | 0.349 | 0.17
